Test results: PubChem BioAssay AID200 (DTP/NCI, 2004)
Where “and” joins values, the source holds several entries; their conditions need not be identical. Equal values may be shown once. Inconclusive results and toxic doses are left out.

System: B6C3F1 mice, B16 melanoma ip, median survival T/C
Assay: NCI In Vivo Anticancer Drug Screen. Data for tumor model B16 Melanoma (intraperitoneal) in B6C3F1 mice
Settings: endpoint: median survival time, schedule: Q01DX009 (ip), higher = longer survival
Method in brief: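 Transplantable tumor in mice; treated vs vehicle control groups; survival or tumor size measured; value = T/C ratio.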

[1] = dose: 25.0 mg/kg/injection, vehicle: saline
[2] = dose: 50.0 mg/kg/injection, vehicle: saline
[3] = dose: 100.0 mg/kg/injection, vehicle: saline
[4] = dose: 25.0 mg/kg/injection, vehicle: Klucel (hydroxypropylcellulose) (HPC)
[5] = dose: 50.0 mg/kg/injection, vehicle: Klucel (hydroxypropylcellulose) (HPC)
[6] = dose: 200.0 mg/kg/injection, vehicle: Klucel (hydroxypropylcellulose) (HPC)
[7] = dose: 100.0 mg/kg/injection, vehicle: Klucel (hydroxypropylcellulose) (HPC)
[8] = dose: 400.0 mg/kg/injection, vehicle: Klucel (hydroxypropylcellulose) (HPC)
[9] = dose: 3.12 mg/kg/injection, vehicle: suspension in saline
[10] = dose: 6.25 mg/kg/injection, vehicle: saline with Tween-80
[11] = dose: 12.5 mg/kg/injection, vehicle: saline with Tween-80
[12] = dose: 25.0 mg/kg/injection, vehicle: saline with Tween-80
[13] = dose: 50.0 mg/kg/injection, vehicle: saline with Tween-80
[14] = dose: 100.0 mg/kg/injection, vehicle: saline with Tween-80

O=C1C=CN(C2OC(CO)C(O)C2O)C(=O)C1 (centres undefined)
T/C [1]: 97 % of control
T/C [2]: 108 % of control
T/C [3]: 102 % of control
T/C (dose: 200.0 mg/kg/injection, vehicle: saline): 105 % of control
T/C (dose: 400.0 mg/kg/injection, vehicle: saline): 115 % of control

Nc1n[nH]c2ccccc12
T/C (dose: 25.0 mg/kg/injection, vehicle: acid diluted with saline): 101 % of control
T/C (dose: 50.0 mg/kg/injection, vehicle: acid diluted with saline): 102 % of control
T/C (dose: 100.0 mg/kg/injection, vehicle: acid diluted with saline): 95 % of control
T/C (dose: 200.0 mg/kg/injection, vehicle: acid diluted with saline): 88 % of control

c1cc(OCC2CO2)ccc1OCC1CO1 (centres undefined)
T/C (dose: 12.5 mg/kg/injection, vehicle: Klucel (hydroxypropylcellulose) (HPC)): 109 % of control
T/C [4]: 121 % of control and 103 % of control
T/C [5]: 105 % of control
T/C [6]: 117 % of control

CCC(C)C(NC(=O)OC(C)(C)C)C(=O)O (centres undefined)
T/C [7]: 99 % of control
T/C [6]: 92 % of control
T/C [8]: 87 % of control

[Cl][Pt+2][Cl].[NH-]CC1(C[NH-])CCC1
T/C (dose: 0.19 mg/kg/injection, vehicle: suspension in saline): 107 % of control
T/C (dose: 0.39 mg/kg/injection, vehicle: suspension in saline): 114 % of control
T/C (dose: 0.78 mg/kg/injection, vehicle: suspension in saline): 123 % of control
T/C (dose: 1.56 mg/kg/injection, vehicle: suspension in saline): 151 % of control
T/C [9]: 167 % of control

Cn1c2c(c3ccccc3c1=O)C(=O)c1ccccc1-2
T/C (dose: 3.13 mg/kg/injection, vehicle: saline with Tween-80): 114 % of control
T/C [10]: 105 % of control
T/C [11]: 98 % of control and 101 % of control
T/C [12]: 104 % of control
T/C [13]: 96 % of control
T/C [14]: 102 % of control
T/C (dose: 200.0 mg/kg/injection, vehicle: saline with Tween-80): 94 % of control
T/C (dose: 400.0 mg/kg/injection, vehicle: saline with Tween-80): 88 % of control

CCN(CC)CCC(=O)c1ccccc1
T/C [9]: 97 % of control
T/C (dose: 6.25 mg/kg/injection, vehicle: suspension in saline): 98 % of control
T/C (dose: 12.5 mg/kg/injection, vehicle: suspension in saline): 104 % of control
T/C (dose: 25.0 mg/kg/injection, vehicle: suspension in saline): 107 % of control
T/C (dose: 50.0 mg/kg/injection, vehicle: suspension in saline): 124 % of control

C[Si](C)(CCl)N[Si](C)(C)CCl
T/C [11]: 100 % of control
T/C [12]: 104 % of control
T/C [13]: 99 % of control
T/C [14]: 96 % of control

CCCC(NC)C(CC)CN (centres undefined)
T/C (dose: 12.5 mg/kg/injection, vehicle: saline): 93 % of control
T/C [1]: 100 % of control
T/C [2]: 110 % of control
T/C [3]: 105 % of control

O=C1CSC(c2cccs2)N1c1nncs1 (centres undefined)
T/C [4]: 102 % of control
T/C [5]: 92 % of control
T/C [7]: 92 % of control
T/C [6]: 97 % of control

C[n+]1c(/C=N/NC(N)=S)ccc2ccccc21
T/C [10]: 92 % of control
T/C [11]: 87 % of control
T/C [12]: 92 % of control
T/C [13]: 94 % of control
T/C [14]: 92 % of control

O=C(O)CNC(=O)CNC(=O)CNC(=O)CNC(=O)CNC(=O)OCc1ccccc1
T/C [7]: 111 % of control
T/C [6]: 96 % of control
T/C [8]: 97 % of control
